One series relates to NCI-H522. The series can be described thus: Growth inhibition of human NCI-H522 cells assessed as cell viability at 10 uM incubated for 48 hrs by sulforhodamine B assay. It counts as functional. The settings on record: NCI-H522, 48 h, read-out: Activity.
A short description of series [1]: Growth inhibition of human HCC2998 cells assessed as cell viability at 10 uM incubated for 48 hrs by sulforhodamine B assay. The settings on record: HCC 2998, 48 h, read-out: Activity. It counts as functional.
For the next series, the system named is NCI-H23. The series can be described thus: Growth inhibition of human NCI-H23 cells assessed as cell viability at 10 uM incubated for 48 hrs by sulforhodamine B assay. The settings on record: NCI-H23, 48 h, read-out: Activity. The class given is functional. (Sulforhodamine B stains cellular protein and so reports cell mass.)
The next series relates to T47D. The experiment in a line: Growth inhibition of human T47D cells assessed as cell viability at 10 uM incubated for 48 hrs by sulforhodamine B assay. It counts as functional. The settings on record: read-out: Activity.
Series [2] concerns the target T1, Peroxisome proliferator-activated receptor gamma (Homo sapiens) (UniProt P37231).
T1 sequence (whole entry): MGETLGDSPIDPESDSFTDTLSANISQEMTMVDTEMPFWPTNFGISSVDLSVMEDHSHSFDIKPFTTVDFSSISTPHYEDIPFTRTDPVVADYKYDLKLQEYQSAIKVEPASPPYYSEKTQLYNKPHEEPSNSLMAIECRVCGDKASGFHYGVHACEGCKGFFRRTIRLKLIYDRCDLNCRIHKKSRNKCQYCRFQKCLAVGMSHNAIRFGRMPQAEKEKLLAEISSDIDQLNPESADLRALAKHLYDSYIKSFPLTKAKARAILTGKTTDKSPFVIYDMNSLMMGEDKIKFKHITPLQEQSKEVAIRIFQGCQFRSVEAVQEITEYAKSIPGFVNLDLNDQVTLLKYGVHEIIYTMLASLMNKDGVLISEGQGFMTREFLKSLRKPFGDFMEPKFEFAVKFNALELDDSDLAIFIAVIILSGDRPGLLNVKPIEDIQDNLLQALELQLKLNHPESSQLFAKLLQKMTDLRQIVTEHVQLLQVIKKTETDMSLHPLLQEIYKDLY
The series can be described thus: Agonist activity at PPARgamma (unknown origin) expressed in HEK293 cells assessed as receptor transactivation at 10 uM incubated for 24 hrs by luciferase reporter gene assay. It counts as cell-based. (In general: Reporter assays use an easily measured gene product as a stand-in for the process of interest.)

The test system of the next series is PC-3. The series can be described thus: Growth inhibition of human PC3 cells assessed as cell viability at 10 uM incubated for 48 hrs by sulforhodamine B assay. It counts as functional. The settings on record: PC-3, 48 h, read-out: Activity.
The test system of the next series is A549. The series can be described thus: Growth inhibition of human A549/ATCC cells assessed as cell viability at 10 uM incubated for 48 hrs by sulforhodamine B assay. It counts as functional. The settings on record: A549, 48 h, read-out: Activity.
The test system of a further series is SW-620. The experiment in a line: Growth inhibition of human SW620 cells assessed as cell viability at 10 uM incubated for 48 hrs by sulforhodamine B assay. The settings on record: SW-620, 48 h, read-out: Activity. The class given is functional.
The nature of series [3]: Growth inhibition of human COLO205 cells assessed as cell viability at 10 uM incubated for 48 hrs by sulforhodamine B assay. The class given is functional. The settings on record: COLO 205, 48 h, read-out: Activity.
Series [4] has as its system Rattus norvegicus. The series can be described thus: Toxicity in STZ-induced diabetic Wistar rat model assessed as increase in body weight at 30 mg/kg, po repeated for 15 days […]. It counts as organism-based. The settings on record: in vivo, 360 h.
A short description of series [5]: Growth inhibition of human SF295 cells assessed as cell viability at 10 uM incubated for 48 hrs by sulforhodamine B assay. The class given is functional. The settings on record: SF-295, 48 h, read-out: Activity.
The next series has as its system K562. The series can be described thus: Growth inhibition of human K562 cells assessed as cell viability at 10 uM incubated for 48 hrs by sulforhodamine B assay. The settings on record: K562, 48 h, read-out: Activity. The class given is functional.
The next series has as its system TK-10. The series can be described thus: Growth inhibition of human TK10 cells assessed as cell viability at 10 uM incubated for 48 hrs by sulforhodamine B assay. The settings on record: TK-10, 48 h, read-out: Activity. It counts as functional.
In a further series the test system is UACC-62. The series can be described thus: Growth inhibition of human UACC62 cells assessed as cell viability at 10 uM incubated for 48 hrs by sulforhodamine B assay. It counts as functional. The settings on record: UACC-62, 48 h, read-out: Activity.
Another series has as its system MCF7. The experiment in a line: Growth inhibition of human MCF7 cells assessed as cell viability at 10 uM incubated for 48 hrs by sulforhodamine B assay. The settings on record: MCF7, 48 h, read-out: Activity. It counts as functional.
Another series deals with IGROV-1. The experiment in a line: Growth inhibition of human IGROV1 cells assessed as cell viability at 10 uM incubated for 48 hrs by sulforhodamine B assay. The settings on record: IGROV-1, 48 h, read-out: Activity. It counts as functional.
The subject of series [6] is Rattus norvegicus. The experiment in a line: Antidiabetic activity in Wistar rat assessed as reduction in blood glucose level at 30 mg/kg, po dosed 30 mins before glucose challenge and measured 30 and 60 mins post glucose challenge by OGTT method. It counts as functional, organism-based.
For another series, the system named is KM12. The experiment in a line: Growth inhibition of human KM12 cells assessed as cell viability at 10 uM incubated for 48 hrs by sulforhodamine B assay. It counts as functional. The settings on record: KM12, 48 h, read-out: Activity.
A further series has as its system HL-60(TB). The series can be described thus: Growth inhibition of human HL-60(TB) cells assessed as cell viability at 10 uM incubated for 48 hrs by sulforhodamine B assay. The class given is functional. The settings on record: HL-60, 48 h, read-out: Activity.
The subject of the next series is ACHN. The experiment in a line: Growth inhibition of human ACHN cells assessed as cell viability at 10 uM incubated for 48 hrs by sulforhodamine B assay. The settings on record: read-out: Activity. It counts as functional.
The next series relates to NCI-H322M. The series can be described thus: Growth inhibition of human NCI-H322M cells assessed as cell viability at 10 uM incubated for 48 hrs by sulforhodamine B assay. It counts as functional. The settings on record: read-out: Activity.
A further series has as its system CCRF-CEM. The experiment in a line: Growth inhibition of human CCRF-CEM cells assessed as cell viability at 10 uM incubated for 48 hrs by sulforhodamine B assay. The settings on record: read-out: Activity. It counts as functional.
The test system of series [7] is Rattus norvegicus. The experiment in a line: Antidiabetic activity in STZ-induced diabetic Wistar rat model assessed as reduction in blood glucose level at 30 mg/kg, po repeated for 15 days by GOD-POD method. It counts as functional, organism-based.
The next series has as its system SK-MEL-28. The experiment in a line: Growth inhibition of human SK-MEL-28 cells assessed as cell viability at 10 uM incubated for 48 hrs by sulforhodamine B assay. It counts as functional. The settings on record: SK-MEL-28, 48 h, read-out: Activity.
A short description of series [8]: Growth inhibition of human LOXIMVI cells assessed as cell viability at 10 uM incubated for 48 hrs by sulforhodamine B assay. The class given is functional. The settings on record: LOX IMVI, read-out: Activity.
For the next series, the system named is SK-MEL-2. The experiment in a line: Growth inhibition of human SK-MEL-2 cells assessed as cell viability at 10 uM incubated for 48 hrs by sulforhodamine B assay. The class given is functional. The settings on record: SK-MEL-2, 48 h, read-out: Activity.

The source made the active and inactive calls. The calls are words filed in the database; no cut-off is given here.

For the molecule `COc1ccc(C2CC(c3ccco3)=NN2c2ccc(S(=O)(=O)NC(=O)NCc3ccccc3)cc2)cc1` (stereo not given), the viability at 10 µM is 86.3% with NCI-H522; 109% in series [1]; 108% in the series on NCI-H23; 84.6% in the series on T47D; 92.4% in the series with PC-3; 92.8% in the series on A549. Also, the viability at 10 µM with SW-620 was 104%; in series [3], 123%; in [5], 95.9%; in the series with K562 it was 98%; in the series on TK-10, 93%; in the series with UACC-62, 105%. The viability at 10 µM came to 94.7% with MCF7; 113% with IGROV-1; 105% with KM12; 126% with HL-60(TB); 101% in the series on ACHN; 97.5% in the series on NCI-H322M. Moreover, the viability at 10 µM in the series with CCRF-CEM was found to be 99%; in the series on SK-MEL-28, 101%; in [8], 102%; with SK-MEL-2 it was 90.7%. Besides, the result (in series [2]; in the series with Rattus norvegicus [6]; with Rattus norvegicus [7]) was Active. Also, the Activity result with Rattus norvegicus [4] is listed as “Non-toxic”.
As to `COc1ccc(NC(=O)NS(=O)(=O)c2ccc(N3N=C(c4cc5ccccc5oc4=O)CC3c3ccc(N(C)C)cc3)cc2)cc1` (stereo not given), the viability at 10 µM in series [1] is 104%; in the series with NCI-H23, 85.1%; with T47D, 87.7%; in the series on PC-3, 97.6%; in the series with A549 it was 95%; in the series on SW-620 it was 103%. For the same molecule, the viability at 10 µM was 115% in series [3]; 83.8% in series [5]; 114% in the series with K562; 88.6% in the series with UACC-62; 83.1% with MCF7; 109% in the series with IGROV-1. Further, the viability at 10 µM in the series with KM12 is 101%; with HL-60(TB), 130%; with ACHN, 89.7%; in the series with NCI-H322M it was 99.9%; in the series on CCRF-CEM it was 107%; with SK-MEL-28, 101%. Also, the viability at 10 µM in series [8] was 95.6%.
With `COc1ccc(C2CC(c3cc4ccccc4oc3=O)=NN2c2ccc(S(=O)(=O)NC(=O)Nc3ccccc3C)cc2)cc1` (stereo not given), the viability at 10 µM in series [1] was determined as 107%; with NCI-H23, 87.7%; in the series on T47D it was 95.8%; in the series on PC-3, 81%; in the series with A549, 96.6%; in the series on SW-620, 97.1%. Also, the viability at 10 µM in series [3] came out at 119%; in series [5] it was 93.8%; with K562, 76.8%; with UACC-62, 89.2%; in the series on MCF7, 91.1%; in the series with IGROV-1 it was 109%. The viability at 10 µM with KM12 was found to be 102%; with HL-60(TB), 108%; in the series on ACHN, 89.7%; with NCI-H322M, 87.1%; in the series on CCRF-CEM, 92.6%; in the series with SK-MEL-28, 102%. Moreover, the viability at 10 µM in [8] was determined as 92.6%. The result (in series [2]; with Rattus norvegicus [6]; in the series with Rattus norvegicus [7]) was Active. Also, the Activity result in the series on Rattus norvegicus [4] is “Non-toxic”.
Take `O=C(NCc1ccccc1)NS(=O)(=O)c1ccc(N2N=C(c3cc4ccccc4oc3=O)CC2c2cccs2)cc1` (stereo not given): the viability at 10 µM with NCI-H522 was 96.3%; in series [1] it was 106%; in the series with NCI-H23, 101%; in the series on T47D it was 97.4%; in the series on PC-3 it was 108%; with A549, 99.3%. Further, the viability at 10 µM with SW-620 was 108%; in series [3] it was 119%; in series [5] it was 93.8%; with K562, 111%; in the series on TK-10 it was 108%; with UACC-62 it was 102%. Besides, the viability at 10 µM in the series on MCF7 was 94.4%; in the series with IGROV-1, 117%; in the series on KM12, 105%; in the series with HL-60(TB), 119%; in the series on ACHN, 102%; in the series on NCI-H322M it was 106%. The viability at 10 µM with CCRF-CEM stood at 108%; in the series on SK-MEL-28 it was 97.4%; in series [8], 97.7%; in the series on SK-MEL-2, 96%.
As for `CN(C)c1ccc(C2CC(c3cc4ccccc4oc3=O)=NN2c2ccc(S(=O)(=O)NC(=O)NCc3ccccc3)cc2)cc1` (stereo not given), the viability at 10 µM is 90% in [1]; 67.3% in the series with NCI-H23; 64% in the series on T47D; 67.1% in the series on PC-3; 61% with A549; 73.1% in the series on SW-620. The viability at 10 µM in series [3] turned out to be 78.2%; in series [5], 61.7%; with K562 it was 59.5%; in the series with UACC-62 it was 37.6%; in the series with MCF7, 47.6%; in the series on IGROV-1 it was 97.8%. Further, the viability at 10 µM in the series with KM12 was 72.9%; in the series with HL-60(TB), 66.4%; in the series on ACHN, 58.2%; in the series with NCI-H322M, 79.6%; with CCRF-CEM, 72%; with SK-MEL-28 it was 57.4%. Further, the viability at 10 µM in series [8] was found to be 79.8%. In addition, the outcome with Rattus norvegicus [6] was Active.

The values are drawn from ChEMBL document CHEMBL3621178, “Antidiabetic effect of novel benzenesulfonylureas as PPAR-γ agonists and their anticancer effect” (Bioorg Med Chem Lett, 2015).
